# Data as given in patent US5736565A, “Therapeutic compounds suitable for the treatment of diseases connected with glutathione deficiency, process for their preparation, and pharmaceutical compositions containing same” (Prospa B.V., priority 1992, dated 1998).
# Several values for one entry are separate records, joined by “and”; a condition that tells them apart may be missing. Equal entries are not always repeated. Where two headings read alike, the source gives them in different places. Peptide text beside a SMILES is read from it.
# Legend:
# serum GPT = assay: Test No. 4: dichloropropane (DCP) intoxication in vivo, serum GPT; design: species or system rat
# Procedure: (§1) A test was carried out in vivo on four groups of four rats each, using, as a toxic substance, dichloropropane (DCP), the main constituent of several solvents. DCP is noxious both by ingestion and inhalation and has a notable toxicity to the liver, mediated by an almost total depletion of thiol groups, including those of GSH.
# (§2) The experimental model involves the study of the effect of DCP toxicity in the rat, in respect of glutathione (GSH) concentration in the main target tissue: the liver.
# (§3) Tests were carried out on four groups of rats. The first group of animals was administered 2 ml DCP/kg dissolved in oil (40% v/v) per os. Twenty-four hours after DCP administration, blood samples were taken for SGPT measurement, while the animals were sacrificed; small portions of liver were then excised and immediately deproteinized by homogenization in 6% PCA. The chromatographic analyses of GSH and GSSG (oxidized glutathione) were performed.
# (§4) The second group of animals was treated with the test drug (600 mg/kg i.p.) two hours after DCP administration. The third and fourth groups were treated with N-acetyl-cysteine (NAC) (250 mg/kg i.p.) and, respectively, with glutathione (Tationil^R) (600 mg/kg i.p.).
# [1] = test system: glutathione (GSH) in hepatocytes; assay: Tests in vitro: glutathione content of isolated rat hepatocytes; type: cell-based; details: for activity at 250 µM / activity at 500 µM / activity at 1000 µM / activity at 2500 µM / activity at 5000 µM: read-out: Glutathione concentrations; for activity at 1000 µM: DEM + 1.0 mM; for activity at 5000 µM: DEM + 5.0 mM
# Procedure: The experimental model envisages the isolation of hepatic parenchymal cells of rats following perfusion, with collagenase, of the isolated organ. Prior to each test, hepatocytes vitality was quantified by Tripan Blue […]. Only the cells with a vitality greater than 90% were utilized. Hepatocytes were resuspended, at a concentration of 10^6 cells/ml, in a saline medium (Krebs Heinseleit) at ph 7.4, and then placed into rotating flasks in the presence of O2 (95%) and CO2 (5%), at 37° C. Cells keep vital for 5-6 hours at least.
# […] The cells were then washed for 30 min. and incubated with various concentrations of the test substance (from 0.25 to 5 mM).
# By this experimental model it is possible to test the effect of the substance by evaluating the hepatic functionality determined by measurements of the vitality (Tables Nos. 3, 4, and 5) and of glutathione content (Tables 6, 7, and 8).
# In the Tables 3-8 herein below reported, the controls are represented by normal hepatocytes, not treated either with DEM or with compound (I).
# DCP toxicity in the rat = assay: Test No. 4: dichloropropane (DCP) intoxication in vivo, death rate and signs; details: DCP-treated rats
# Procedure: as §1, §2, §3, §4
# [2] = test system: Lewis lung carcinoma cells; assay: Transplantable neoplasms: metastases development in BALB/c mice; type: in vivo
# Procedure: Male adult BALB/c mice weighing 20 g were stabled under standard conditions (24°±1° C., 12 h light/dark cycle, free access to food and water). Handlings were made in such a way as to avoid stressful stimuli.
# All animals, subdivided into groups of 6, were treated 4 weeks with a PSC dose (600 mg/kg). […] Treatment was continued two weeks after tumour inoculation. The mice were sacrificed and the tumoral mass growth and the development of metastases, if any, were evaluated.
# interleukin-2 (IL-2) = assay: Interleukin-2 (IL-2) production following interleukin-1 (IL-1) i.p. injection in young and old rats; type: in vivo, Sprague-Dawley rats; details: i.p. treated groups
# Procedure: Sprague-Dawley rats (Charles River, Calco (CO)), aged 10 weeks (young adults) and 24 months (old), were stabled under standard conditions (24°±1° C., 12 h light/dark cycle, free access to food and water). Handlings were made in such a way as to avoid stressful stimuli.
# The animals were stabled in groups of 6 per cage and treated for 2 weeks (15 days) with a PSC daily dose of 600 mg/kg by intraperitoneal route (i.p.).
# With a view to evaluating a further aspect of the immunological activity in PSC-treated (600 mg/kg) animals, according to the aforementioned scheme, an investigation was carried out on interleukin-2 (IL-2) response to the injection of IL-1 that, as known, stimulates IL-2 production from lymphocytes.
# Once the treatment was completed, each rat was administered IL-1 (0.1 mg/kg, i.p.). One hour after injection, the animals were killed by decapitation, the blood was collected and centrifuged, and the plasma maintained at -20° C. until IL-2 dosing.
# The evaluation of IL-2 production was based on an immunological assay, utilizing a specific antibody produced in heterologous species against rat IL-2. Samples were assayed twice.
# The controls are rats treated only with IL-1.
# [3] = Rattus norvegicus, Hepatocyte, 0 h, 0 time
# [4] = Rattus norvegicus, Hepatocyte, 0.5 h, 30 min
# [5] = Rattus norvegicus, Hepatocyte, 1 h, 1 hr
# [6] = Rattus norvegicus, Hepatocyte, 2 h, 2 hrs
# [7] = Rattus norvegicus, Hepatocyte, 4 h, 4 hrs
# [8] = 600 mg/kg i.p., 30 days' treatment, 15 days after inoculation
smiles,measurement,setting,value
"CC(=O)SC[C@H](NC(=O)[C@@H]1CCC(=O)N1)C(=O)O [PSC, 2-(S)-(2-pyrrolidone-5-(S)-carbonyl amido)-3-acetylmercapto propionic acid] (HELM PEPTIDE1{[Glp].C}|PEPTIDE2{[ac]}$PEPTIDE1,PEPTIDE2,2:R3-1:R2$$$V2.0)","GPT, average values",serum GPT; DCP + 600 mg/kg i.p.,22.0 U/1
same,"GPT, individual animals","serum GPT; DCP + 600 mg/kg i.p., animals 1-4, listed as (I) (R = CH3), 600 mg/kg",24.4 U/1 and 26.4 U/1 and 17.4 U/1 and 20.1 U/1
same,GPT,serum GPT; DCP + (I)(R=CH3),22.0 U/l
same,Serum GPT (in words),serum GPT; DCP-treated rats,maintained within standard limits
same,increase in the GSH content,"[1]; DEM-pretreated hepatocytes, 2.5 and 5 mM",greater than 170%
same,activity at 250 µM,"[1]; Rattus norvegicus, Hepatocyte, 0 h, DEM + 0.25 mM, 0 time",28%
same,activity at 500 µM,"[1]; Rattus norvegicus, Hepatocyte, 0 h, DEM + 0.50 mM, 0 time",28.4%
same,activity at 1000 µM,[1]; [3],25.8%
same,activity at 2500 µM,"[1]; Rattus norvegicus, Hepatocyte, 0 h, DEM + 2.5 mM, 0 time",23.9%
same,activity at 5000 µM,[1]; [3],26.6%
same,activity at 250 µM,"[1]; Rattus norvegicus, Hepatocyte, 0 h, no DEM, 0.25 mM, 0 time",104%
same,activity at 500 µM,"[1]; Rattus norvegicus, Hepatocyte, 0 h, no DEM, 0.50 mM, 0 time",107%
same,activity at 2500 µM,"[1]; Rattus norvegicus, Hepatocyte, 0 h, no DEM, 2.5 mM, 0 time",99.5%
same,activity at 250 µM,"[1]; Rattus norvegicus, Hepatocyte, 0.5 h, DEM + 0.25 mM, 30 min",42.8%
same,activity at 500 µM,"[1]; Rattus norvegicus, Hepatocyte, 0.5 h, DEM + 0.50 mM, 30 min",45.7%
same,activity at 1000 µM,[1]; [4],52.7%
same,activity at 2500 µM,"[1]; Rattus norvegicus, Hepatocyte, 0.5 h, DEM + 2.5 mM, 30 min",61.1%
same,activity at 5000 µM,[1]; [4],69.4%
same,activity at 250 µM,"[1]; Rattus norvegicus, Hepatocyte, 0.5 h, no DEM, 0.25 mM, 30 min",117%
same,activity at 500 µM,"[1]; Rattus norvegicus, Hepatocyte, 0.5 h, no DEM, 0.50 mM, 30 min",144%
same,activity at 2500 µM,"[1]; Rattus norvegicus, Hepatocyte, 0.5 h, no DEM, 2.5 mM, 30 min",158%
same,activity at 250 µM,"[1]; Rattus norvegicus, Hepatocyte, 1 h, DEM + 0.25 mM, 1 hr",54.8%
same,activity at 500 µM,"[1]; Rattus norvegicus, Hepatocyte, 1 h, DEM + 0.50 mM, 1 hr",74.2%
same,activity at 1000 µM,[1]; [5],71%
same,activity at 2500 µM,"[1]; Rattus norvegicus, Hepatocyte, 1 h, DEM + 2.5 mM, 1 hr",89%
same,activity at 5000 µM,[1]; [5],92%
same,activity at 250 µM,"[1]; Rattus norvegicus, Hepatocyte, 1 h, no DEM, 0.25 mM, 1 hr",134%
same,activity at 500 µM,"[1]; Rattus norvegicus, Hepatocyte, 1 h, no DEM, 0.50 mM, 1 hr",155%
same,activity at 2500 µM,"[1]; Rattus norvegicus, Hepatocyte, 1 h, no DEM, 2.5 mM, 1 hr",182%
same,activity at 250 µM,"[1]; Rattus norvegicus, Hepatocyte, 2 h, DEM + 0.25 mM, 2 hrs",81.2%
same,activity at 500 µM,"[1]; Rattus norvegicus, Hepatocyte, 2 h, DEM + 0.50 mM, 2 hrs",103%
same,activity at 1000 µM,[1]; [6],96.7%
same,activity at 2500 µM,"[1]; Rattus norvegicus, Hepatocyte, 2 h, DEM + 2.5 mM, 2 hrs",119%
same,activity at 5000 µM,[1]; [6],119%
same,activity at 250 µM,"[1]; Rattus norvegicus, Hepatocyte, 2 h, no DEM, 0.25 mM, 2 hrs",142%
same,activity at 500 µM,"[1]; Rattus norvegicus, Hepatocyte, 2 h, no DEM, 0.50 mM, 2 hrs",159%
same,activity at 2500 µM,"[1]; Rattus norvegicus, Hepatocyte, 2 h, no DEM, 2.5 mM, 2 hrs",191%
same,activity at 250 µM,"[1]; Rattus norvegicus, Hepatocyte, 4 h, DEM + 0.25 mM, 4 hrs",83%
same,activity at 500 µM,"[1]; Rattus norvegicus, Hepatocyte, 4 h, DEM + 0.50 mM, 4 hrs",138%
same,activity at 1000 µM,[1]; [7],119%
same,activity at 2500 µM,"[1]; Rattus norvegicus, Hepatocyte, 4 h, DEM + 2.5 mM, 4 hrs",173%
same,activity at 5000 µM,[1]; [7],191%
same,activity at 250 µM,"[1]; Rattus norvegicus, Hepatocyte, 4 h, no DEM, 0.25 mM, 4 hrs",146%
same,activity at 500 µM,"[1]; Rattus norvegicus, Hepatocyte, 4 h, no DEM, 0.50 mM, 4 hrs",207%
same,activity at 2500 µM,"[1]; Rattus norvegicus, Hepatocyte, 4 h, no DEM, 2.5 mM, 4 hrs",211%
same,activation at 250 µM,"[1]; Rattus norvegicus, Hepatocyte, DEM-pretreated hepatocytes, 0.25 mM, 4 hours, read-out: increase in GSH values",~80%
same,activation at 500 µM,"[1]; Rattus norvegicus, Hepatocyte, DEM-pretreated hepatocytes, 0.5 mM, 4 hours, read-out: increase in GSH values",130 to 140%
same,activation at 1000 µM,"[1]; Rattus norvegicus, Hepatocyte, DEM-pretreated hepatocytes, 1 mM, read-out: increase in the GSH content",~120%
same,restoring thiol groups and in particular GSH (in words),[1]; in vitro,greatly effective in restoring thiol groups and in particular GSH
same,permeability of the hepatocyte membrane (in words),[1]; normal hepatocytes,clearly indicates the permeability of the hepatocyte membrane
same,increase in basal GSH at 2.5 mM compared with 0.5 mM (in words),"[1]; normal hepatocytes, 4 hours",superimposable to that caused by concentrations five times lower (0.5 mM)
same,increase in GSH basal values,"[1]; normal hepatocytes, concentrations from 0.5 mM, after 4 hrs, in respect of controls",greater than 180%
same,behavioural (torpor) and postural (ataxia) disorders (in words),DCP toxicity in the rat,did not show any notable modification of said parameters
same,death (in words),DCP toxicity in the rat,no death occurred
same,macroscopic examination of liver (in words),DCP toxicity in the rat,showed liver parenchyma within standard limits
same,coagulative disorders (in words),DCP toxicity in the rat; merely qualitative examination,absent
same,"Mice with metastases, %",[2]; [8],33%
same,Mice with metastases/group,[2]; [8],2/6
same,metastatic process (in words),"[2]; mouse, in vivo",slows down the metastatic process
same,IL-2 levels (in words),interleukin-2 (IL-2),significant increases were detected in the groups treated i.p. with PSC
